The values that follow come from patent US9278994B2, “Short antimicrobial lipopeptides” (Helix BioMedix Inc., priority 2012, dated 2016).

In brackets after ≈: the same amount, converted by molar mass. Where a SMILES comes first, the peptide text is derived from it. [ ]: non-standard residue; d: D form. The star is where a group is joined. Palmitoyl = CCCCCCCCCCCCCCCC(=O)*; Myristoyl = CCCCCCCCCCCCCC(=O)*; Octanoyl = CCCCCCCC(=O)*

The subject of assay [1] is C. albicans 105. The method, then: (§1) We conducted the minimal inhibitory concentration (MIC) determination using CLSI (Clinical and Laboratory standard Institute) recommended standard protocol for antimicrobials (Methods for Dilution Antimicrobial Susceptibility Tests for Bacteria That Grow Aerobically; Approved Standard—Ninth Edition).
(§2) 2. Bacterial strains and culture conditions. E. coli UB1005, S. aureus SAP0017 (MRSA) and C. albicans 105 were grown in Mueller Hinton (MH) (Difco, BD Biosciences, MD) agar plates and broth (2 g of beef extract, 17.5 g of acid hydrolysis of casein and 1.5 g of starch per liter) at 37° C. unless otherwise indicated. Bacteria from frozen stock were subcultured onto freshly made MH agar plates prior to susceptibility testing. For P. acnes, the bacterium was grown in BBL™ Brain-Heart infusion (Becton, Dickinson & Company, Sparks Md.) broth or agar plates at 37° C. in anaerobic condition generated using a anaerobic jar and AnaeroGen™ (Oxoid, Basingstoke, Hampshire, England).
(§3) 3. […] The minimal inhibitory concentration (MIC) of each peptide was determined using modified CLSI microtiter broth dilution assay (Methods for Dilution Antimicrobial Susceptibility Tests for Bacteria That Grow Aerobically; Approved Standard—Ninth Edition). An inoculum of 10^5-10^6 colony forming units (CFU)/ml was used or 10^4 CFU/ml for yeast. The MIC value was taken as the lowest peptide concentration at which more than 90% of microbial growth was inhibited after 15 to 20 h of incubation at 37° C. For P. acnes, the incubation was kept under anaerobic condition at 37° C. for 2 weeks before MIC was determined Kill kinetics was performed using a given concentration (about 2-5-fold MIC) of peptide mixed with indicator microorganism. After appropriate dilution the cells were plated on agar plates after defined time intervals and incubated at 37° C. overnight. In the case of P. acnes an extended incubation period was required. The CFU was counted and plotted as survival of bacteria after peptide treatment over time, which indicates the effectiveness of a peptide to kill a microbe.

In assay [2] the test system is E. coli UB1005. The method, then:
as §1, §2, §3

Assay [3] has as its system S. aureus SAP0017 (MRSA). The method, then: as §1, §2, §3
In assay [4] the test system is P. acnes. Type of assay: cell-based, Propionibacterium acnes. On the procedure: as §2, §3

In the case of `CCCCCCCCCCCCCCCC(=O)N[C@@H](CCCCN)C(=O)N[C@@H](CCCCN)C(=O)O` [HB2258, Pal-KK-OH], the “MIC C. albicans” value in assay [1] turned out to be 64 µg/mL (≈ 125 µM). Besides, in assay [2], the “MIC E. coli” value is 32 µg/mL (≈ 62.4 µM). In assay [3], the “MIC S. aureus” value is 16 µg/mL (≈ 31.2 µM). In assay [4], the “MIC P. acnes” value lay in the range of 1 to 4 µg/mL.
On the same counts, the results for `CCCCCCCCCCCCCC(=O)N[C@@H](CCCCN)C(=O)N1CCC[C@H]1C(=O)N[C@H](C(N)=O)C(C)C` [HB2191, Myristoyl-KPV-NH2] (Myristoyl-Lys-Pro-Val-NH2) are 250 µg/mL (≈ 453 µM), 500 µg/mL (≈ 906 µM), 250 µg/mL (≈ 453 µM) and 16 µg/mL (≈ 29 µM).
On the same counts, the results for `CCCCCCCCCCCCCC(=O)N[C@@H](CCCCN)C(=O)N1CCC[C@@H]1C(=O)N[C@H](C(N)=O)[C@@H](C)O` [HB2198, Myristoyl-KdPT-NH2] (Myristoyl-Lys-[dP]-Thr-NH2) are 64 µg/mL (≈ 116 µM), 128 µg/mL (≈ 231 µM), 64 µg/mL (≈ 116 µM) and 8 to 16 µg/mL.
As to `CCCCCCCCCCCCCCCC(=O)N[C@@H](CCCCN)C(=O)N[C@@H](CCCCN)C(N)=O` [HB2238, Pal-KK-NH2], the “MIC C. albicans” value in assay [1] turned out to be 16 µg/mL (≈ 31.3 µM). In assay [2], the “MIC E. coli” value stood at 2 µg/mL (≈ 3.91 µM). Further, the “MIC S. aureus” value in assay [3] came to 4 µg/mL (≈ 7.82 µM).
Regarding `CCCCCCCCCCCCCCCC(=O)N[C@@H](CCCCN)C(=O)N[C@@H](Cc1ccccc1)C(N)=O` [HB2241, Pal-KF-NH2], the “MIC C. albicans” value in assay [1] is >2000 µg/mL. In addition, the “MIC E. coli” value in assay [2] was >2000 µg/mL. Also, the “MIC S. aureus” value in assay [3] is >2000 µg/mL. Further, in assay [4], the “MIC P. acnes” value is >2000 µg/mL.
Take `CCCCCCCCCCCCCCCC(=O)N[C@@H](CCCCN)C(=O)N1CCC[C@@H]1C(=O)N[C@H](C(N)=O)[C@@H](C)O` [HB2200, Pal-K-dPT-NH2] (Palmitoyl-Lys-[dP]-Thr-NH2): in assay [1], the “MIC C. albicans” value amounted to 16 µg/mL (≈ 27.5 µM). Also, in assay [2], the “MIC E. coli” value worked out at 64 µg/mL (≈ 110 µM). Further, the “MIC S. aureus” value in assay [3] was found to be 4 µg/mL (≈ 6.87 µM). For the same molecule, the “MIC P. acnes” value in assay [4] came to 2 µg/mL (≈ 3.44 µM).
As to `CCCCCCCC(=O)N[C@@H](CCCCN)C(=O)N1CCC[C@@H]1C(=O)N[C@H](C(N)=O)[C@@H](C)O` [HB2195, Octanoyl-KdPT-NH2] (Octanoyl-Lys-[dP]-Thr-NH2), the “MIC C. albicans” value in assay [1] was >2000 µg/mL. Besides, in assay [2], the “MIC E. coli” value was >2000 µg/mL. Besides, the “MIC S. aureus” value in assay [3] is >2000 µg/mL. The “MIC P. acnes” value in assay [4] is >2000 µg/mL.
On to `CCCCCCCCCCCCCCCC(=O)N[C@@H](CCCCN)C(=O)N1CCC[C@@H]1C(=O)O` [HB2256, Pal-K-dP-OH] (Palmitoyl-Lys-[dP]-OH), for which the “MIC C. albicans” value in assay [1] was >2000 µg/mL. In addition, in assay [2], the “MIC E. coli” value was >2000 µg/mL. Also, the “MIC S. aureus” value in assay [3] was >2000 µg/mL. Also, the “MIC P. acnes” value in assay [4] was >2000 µg/mL.
As for `CCCCCCCCCCCCCCCC(=O)N1CCC[C@H]1C(=O)N[C@@H](CCCCN)C(N)=O` [HB2251, Pal-PK-NH2] (Palmitoyl-Pro-Lys-NH2), the “MIC C. albicans” value in assay [1] was 128 µg/mL (≈ 266 µM). Further, the “MIC E. coli” value in assay [2] came to 2000 µg/mL (≈ 4160 µM). For the same molecule, the “MIC S. aureus” value in assay [3] was found to be 128 µg/mL (≈ 266 µM). Further, the “MIC P. acnes” value in assay [4] lay within 4 to 16 µg/mL.
For `CCCCCCCCCCCCCCCC(=O)N[C@@H](CCCCN)C(=O)N[C@@H](Cc1c[nH]c2ccccc12)C(N)=O` [HB2248, Pal-KW-NH2] (Palmitoyl-Lys-Trp-NH2), the “MIC C. albicans” value in assay [1] is >2000 µg/mL. In assay [2], the “MIC E. coli” value is >2000 µg/mL. The “MIC S. aureus” value in assay [3] was >2000 µg/mL. The “MIC P. acnes” value in assay [4] is >2000 µg/mL.
On to `CCCCCCCCCCCCCCCC(=O)N[C@@H](CCCCN)C(=O)N[C@@H](CC(=O)O)C(N)=O` [HB2252, Pal-KD-NH2] (Palmitoyl-Lys-Asp-NH2), for which the “MIC C. albicans” value in assay [1] is >2000 µg/mL. Further, the “MIC E. coli” value in assay [2] was >2000 µg/mL. In addition, the “MIC S. aureus” value in assay [3] was >2000 µg/mL.
